Assay results as given in ChEMBL document CHEMBL4610081, “Anti-inflammatory Metabolites from Chaetomium nigricolor” (J Nat Prod, 2020).

System: RAW264.7
Assay: Antiinflammatory activity against mouse RAW264.7 cells assessed as inhibition of LPS-induced NO production preincubated for 3 hrs followed by LPS-stimulation and measured after 24 hrs by Griess reagent based assay
Type: functional, cell-based

SMILES: COc1cc(OC)c2c(O)c3c(=O)cc(C)oc3c(-c3c(OC)cc4cc(O)c5c(=O)cc(C)oc5c4c3OC)c2c1 (atropisomer aS) [FONSECINONE A]
- Activity: Dose-dependent effect
- IC50: 7 µM
